Assay results reported in the NIST ThermoML archive (doi:10.1016/j.tca.2011.01.001).

What was measured:
[1] = for vapor or sublimation pressure: Liquid
[2] = Molar enthalpy of transition or fusion; conditions: Crystal; DSC

O=C(O)c1ccc(O)c(O)c1 [3,4-dihydroxybenzoic acid]
[1]
Conditions | Normal melting temperature [°C] | vapor or sublimation pressure [kPa]
493.6 K, Isothermal TG | – | 1.346
493.7 K, Non-isothermal TG | – | 1.298
494 K, Isothermal TG | – | 1.374
494.1 K, Non-isothermal TG | – | 1.375
494.4 K, Isothermal TG | – | 1.381
494.7 K, Non-isothermal TG | – | 1.365
494.8 K, Isothermal TG | – | 1.445
495 K, Non-isothermal TG | – | 1.494
495.2 K, Isothermal TG | – | 1.477
495.6 K, Isothermal TG | – | 1.482
495.7 K, Non-isothermal TG | – | 1.435
495.9 K, Non-isothermal TG | – | 1.566
496 K, Isothermal TG | – | 1.529
496.4 K, Isothermal TG | – | 1.557
496.7 K, Non-isothermal TG | – | 1.477
496.8 K, Isothermal TG | – | 1.584
496.9 K, Non-isothermal TG | – | 1.652
497.2 K, Isothermal TG | – | 1.607
497.6 K, Isothermal TG | – | 1.636
497.7 K, Non-isothermal TG | – | 1.634
498 K, Isothermal TG | – | 1.682
498 K, Non-isothermal TG | – | 1.745
498.4 K, Isothermal TG | – | 1.699
498.8 K, Isothermal TG | – | 1.728
498.8 K, Non-isothermal TG | – | 1.703
499 K, Non-isothermal TG | – | 1.71
499.1 K, Isothermal TG | – | 1.751
499.5 K, Isothermal TG | – | 1.764
499.7 K, Non-isothermal TG | – | 1.817
499.9 K, Non-isothermal TG | – | 1.882
500 K, Isothermal TG | – | 1.815
500.4 K, Isothermal TG | – | 1.865
500.7 K, Isothermal TG | – | 1.879
500.7 K, Non-isothermal TG | – | 1.858
501 K, Non-isothermal TG | – | 1.898
501.2 K, Isothermal TG | – | 1.914
501.6 K, Isothermal TG | – | 1.939
501.7 K, Non-isothermal TG | – | 1.899
502 K, Isothermal TG | – | 1.945
502 K, Non-isothermal TG | – | 1.962
502.4 K, Isothermal TG | – | 2.003
502.7 K, Non-isothermal TG | – | 1.95
502.8 K, Isothermal TG | – | 2.047
503.1 K, Non-isothermal TG | – | 2.033
503.8 K, Non-isothermal TG | – | 2.014
504.1 K, Non-isothermal TG | – | 2.184
504.7 K, Non-isothermal TG | – | 2.179
505 K, Non-isothermal TG | – | 2.292
505.7 K, Non-isothermal TG | – | 2.217
Crystal, DTA | 201.8 | –

Conditions | Molar enthalpy of transition or fusion [kcal/mol]
[2] | 8.13
